Where “and” joins values, the source holds several entries; their conditions need not be identical. Equal values may be shown once.
Columns and labels:
[1] = xn = mol fraction of the nth substance listed

CCOP(=O)([O-])OCC.CCn1cc[n+](C)c1
100 kPa
Details	viscosity [mPa·s]
293.15 K	566
298.15 K	396.6
303.15 K	285.4
308.15 K	208.7
313.15 K	155.3
318.15 K	117.2
323.15 K	91.75

CCCC[n+]1ccccc1.O=S(=O)([N-]S(=O)(=O)C(F)(F)F)C(F)(F)F
viscosity [mPa·s]
Details	293.15 K	298.15 K	303.15 K	308.15 K	313.15 K	323.15 K
100 kPa	68.87	52.94	41.94	33.75	27.63	–
101 kPa	–	–	49.4	–	33.8	24.2

C[C@H]1CCCC[C@H]1O
101 kPa
Details	viscosity [mPa·s]
298.15 K	17.98
303.15 K	13.53

CCOCCOCCOCCO
Details	viscosity [mPa·s]
298.15 K, 101.33 kPa	7.042

CCCCOCCCOCCCO
101.33 kPa
Details	viscosity [mPa·s]
298.15 K	4.503
308.15 K	3.313
318.15 K	2.531

CCCC[N+]1=C2CCCCCN2CCC1.c1c[n-]cn1
100 kPa
Details	viscosity [mPa·s]
293.15 K	106.7
298.15 K	73.92
303.15 K	53.38
308.15 K	40.19
313.15 K	31.07

NNc1ccccc1
101 kPa
Details	viscosity
303.15 K	10.09 mPa·s
323.1 K	4.58 mPa·s and 4.58 mPa·s

CC(C)C(C)C
Details	viscosity [mPa·s]
298 K, 101.33 kPa	0.3249

CCCCn1cc[n+](C)c1.[Cl][Fe-]([Cl])([Cl])[Cl]
101 kPa
Details	viscosity [mPa·s]
293.15 K	56.56
298.15 K	46
303.15 K	37.95
308.15 K	31.87
313.15 K	27.01
318.15 K	23.24
323.15 K	20.16

N#Cc1ccccc1
Details	viscosity
293.15 K, 101 kPa	1.335 mPa·s
293.15 K, 101.33 kPa	1.382 mPa·s
298.15 K, 101 kPa	1.237 mPa·s and 1.196 mPa·s and 1.249 mPa·s
298.15 K, 101.33 kPa	1.282 mPa·s
303 K, 100 kPa	1.099 mPa·s
303.15 K, 101 kPa	1.161 mPa·s and 1.121 mPa·s and 1.124 mPa·s
303.15 K, 101.32 kPa	1.139 mPa·s
303.15 K, 101.33 kPa	1.148 mPa·s
308 K, 100 kPa	1.003 mPa·s
308.15 K, 101.33 kPa	1.063 mPa·s and 1.063 mPa·s
313 K, 100 kPa	0.9545 mPa·s
313.15 K, 101 kPa	0.997 mPa·s
313.15 K, 101.33 kPa	0.993 mPa·s
318.15 K, 101 kPa	0.931 mPa·s
323.15 K, 101 kPa	0.872 mPa·s and 0.866 mPa·s

CCCCC[N+](CC)(CC)CC.O=S(=O)([N-]S(=O)(=O)C(F)(F)F)C(F)(F)F
101.3 kPa
Details	viscosity [mPa·s]
293.15 K	233
298.15 K	169
303.15 K	126
308.15 K	96.4
313.15 K	75.1
318.15 K	59.6
323.15 K	48

NCCOCCOCCN.O=S(=O)([N-]S(=O)(=O)C(F)(F)F)C(F)(F)F.[Li+]
Details	viscosity [mPa·s]
323.15 K, 101 kPa	108.2

CC(C)[C@H](N)C(=O)[O-].CCCC[P+](CCCC)(CCCC)CCCN
Details	viscosity [mPa·s]
298.15 K, 101 kPa	1015

Nc1cccc2ccccc12
Details	viscosity [mPa·s]
323.15 K, 101.33 kPa	11.2

CCCOCCO
viscosity
Details	293.15 K	298.15 K	303.15 K	308.15 K	318.15 K
101 kPa	2.575 mPa·s	2.35 mPa·s and 2.35 mPa·s	2.07 mPa·s and 2.124 mPa·s	–	–
101.33 kPa	–	2.351 mPa·s	–	1.895 mPa·s	1.448 mPa·s

C[N+](C)(C)C.NCC(=O)[O-]
Details	viscosity [mPa·s]
303 K, 101 kPa	306.2

C1CC[C@H]2CCCC[C@@H]2C1
viscosity [mPa·s]
Details	293.15 K	303.15 K	323.15 K
101 kPa	–	1.616	–
101.3 kPa	2.118	–	–
102 kPa	2.14	1.79	1.3

CCCCOCCCOCCCO + CCO
viscosity [mPa·s], [1], 101.33 kPa
Details	298.15 K	308.15 K	318.15 K
x1 = 0.05	1.3	1.074	0.896
x1 = 0.1	1.505	1.227	1.015
x1 = 0.15	1.717	1.386	1.137
x1 = 0.2	1.927	1.541	1.256
x1 = 0.25	2.135	1.696	1.369
x1 = 0.3	2.362	1.858	1.497
x1 = 0.35	2.562	2.003	1.597
x1 = 0.4001	2.755	2.14	1.696
x1 = 0.4499	2.94	2.265	1.79
x1 = 0.4999	3.121	2.39	1.879
x1 = 0.5499	3.292	2.51	1.956
x1 = 0.5997	3.453	2.622	2.039
x1 = 0.6501	3.608	2.724	2.114
x1 = 0.6998	3.756	2.821	2.182
x1 = 0.7499	3.899	2.91	2.24
x1 = 0.7999	4.018	2.998	2.306
x1 = 0.8499	4.147	3.088	2.363
x1 = 0.8997	4.271	3.158	2.423
x1 = 0.9498	4.386	3.233	2.466

CCCOCCO + O=C1CCCN1
[1], 298.15 K, 101 kPa
Details	viscosity [mPa·s]
x1 = 0.0058	13.97
x1 = 0.015	13.55
x1 = 0.035	12.83
x1 = 0.0681	11.7
x1 = 0.1013	10.72
x1 = 0.1517	9.453
x1 = 0.2214	8.048
x1 = 0.2526	7.522
x1 = 0.3008	6.831
x1 = 0.3725	5.947
x1 = 0.3786	5.895
x1 = 0.4257	5.419
x1 = 0.4698	5.028
x1 = 0.5219	4.651
x1 = 0.5519	4.44
x1 = 0.6236	3.983
x1 = 0.6987	3.576
x1 = 0.7597	3.317
x1 = 0.8327	2.977
x1 = 0.8764	2.801
x1 = 0.9045	2.695
x1 = 0.9327	2.592
x1 = 0.9694	2.473
x2 = 0.0135	2.409

CCCOCCO + CC(=O)N(C)C
[1], 298.15 K, 101 kPa
Details	viscosity [mPa·s]
x1 = 0.0049	0.951
x1 = 0.0086	0.956
x1 = 0.0134	0.961
x1 = 0.0272	0.982
x1 = 0.0419	1.01
x1 = 0.0739	1.049
x1 = 0.1253	1.125
x1 = 0.178	1.202
x1 = 0.2555	1.322
x1 = 0.3191	1.426
x1 = 0.3487	1.478
x1 = 0.3842	1.536
x1 = 0.4022	1.578
x1 = 0.4678	1.679
x1 = 0.5258	1.786
x1 = 0.5917	1.897
x1 = 0.6504	1.987
x1 = 0.725	2.094
x1 = 0.8523	2.26
x1 = 0.9508	2.339
x1 = 0.979	2.345

Source: the CheMixHub viscosity set
